Patent US9802941B2, “Compounds and methods for inhibiting histone demethylases” (Gilead Sciences, Inc., priority 2014, dated 2017)
Where two headings read alike, the source gives them in different places.

Experiments:
Assay type in all cases: biochemical
[1] = biological target: T1, PHF8 (KDM7) (Homo sapiens, UniProt Q9UPP1); assay: Histone lysine demethylase AlphaLISA assay, PHF8
T1 construct: KDM7 (PHF8); BRIC; 1-1322; Bac
Procedure, shortened: (§1)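 Enzyme was preincubated in buffer (50 mM Hepes pH 7.4-8.0, 0.003-0.01% Tween-20, 0.1% BSA, 5 μM (NH4)2Fe(SO4)2), then added to compound in DMSO and incubated 10 minutes before substrate. After reaction at room temperature, acceptor and streptavidin donor beads were added and AlphaLISA signal read.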

[2] = biological target: T2, KDM6A (UTX) (Homo sapiens, UniProt O15550); assay: Histone lysine demethylase AlphaLISA assay, KDM6A
T2 construct: KDM6A (UTX); BRIC; 919-1401; E. coli; host or cells: E. coli
T2 sequence (O15550 919-1401): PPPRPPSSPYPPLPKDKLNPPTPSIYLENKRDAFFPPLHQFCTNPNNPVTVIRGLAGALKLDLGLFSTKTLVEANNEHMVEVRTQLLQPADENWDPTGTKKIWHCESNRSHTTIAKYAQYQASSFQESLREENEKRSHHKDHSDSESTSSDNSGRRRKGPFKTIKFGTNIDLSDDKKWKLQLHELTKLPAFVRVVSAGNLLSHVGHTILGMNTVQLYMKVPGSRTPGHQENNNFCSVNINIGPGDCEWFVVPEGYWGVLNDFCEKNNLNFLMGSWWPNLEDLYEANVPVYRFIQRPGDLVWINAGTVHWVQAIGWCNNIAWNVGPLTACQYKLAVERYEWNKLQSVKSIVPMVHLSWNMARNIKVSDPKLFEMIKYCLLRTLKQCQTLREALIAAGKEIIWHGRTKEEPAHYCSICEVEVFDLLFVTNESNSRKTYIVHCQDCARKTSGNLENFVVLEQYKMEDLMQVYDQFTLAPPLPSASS
Procedure, shortened: as §1

[3] = biological target: T3, KDM5B (PLU-1) (Homo sapiens, UniProt Q9UGL1); assay: Histone lysine demethylase AlphaLISA assay, KDM5B
T3 construct: BRIC; 1-809; E. coli; host or cells: E. coli
T3 sequence (Q9UGL1 1-809): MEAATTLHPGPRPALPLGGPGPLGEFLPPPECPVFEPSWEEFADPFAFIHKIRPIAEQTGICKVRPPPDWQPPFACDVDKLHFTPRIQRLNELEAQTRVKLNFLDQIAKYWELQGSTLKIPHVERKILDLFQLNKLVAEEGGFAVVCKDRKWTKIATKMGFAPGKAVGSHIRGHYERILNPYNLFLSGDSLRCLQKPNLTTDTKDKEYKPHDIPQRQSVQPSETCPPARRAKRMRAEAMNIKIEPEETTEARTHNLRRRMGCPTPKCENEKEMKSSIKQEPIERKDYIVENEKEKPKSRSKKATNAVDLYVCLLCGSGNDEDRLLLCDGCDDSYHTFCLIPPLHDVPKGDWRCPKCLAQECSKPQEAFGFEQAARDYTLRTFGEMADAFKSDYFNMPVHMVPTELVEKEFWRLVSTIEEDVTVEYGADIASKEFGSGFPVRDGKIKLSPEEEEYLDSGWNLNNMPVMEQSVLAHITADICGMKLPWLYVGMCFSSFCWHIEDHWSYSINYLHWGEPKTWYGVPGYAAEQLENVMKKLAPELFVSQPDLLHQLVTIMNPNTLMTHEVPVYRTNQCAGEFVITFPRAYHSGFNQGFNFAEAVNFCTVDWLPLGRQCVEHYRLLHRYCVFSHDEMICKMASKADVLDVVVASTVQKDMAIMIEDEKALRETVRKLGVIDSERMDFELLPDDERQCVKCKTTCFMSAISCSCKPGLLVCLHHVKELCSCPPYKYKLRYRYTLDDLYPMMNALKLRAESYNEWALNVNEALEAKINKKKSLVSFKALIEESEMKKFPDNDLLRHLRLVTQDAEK
Procedure, shortened: as §1

[4] = biological target: T4, KDM2B (FBXL10) (Homo sapiens, UniProt Q8NHM5); assay: Histone lysine demethylase AlphaLISA assay, KDM2B; conditions: AlphaLISA, in vitro; read-out: HDME Inhibition KDM2B
T4 construct: KDM2B; BPS,; 1-650; Bac; purchased BPS Bioscience, US; host or cells: baculovirus system
T4 sequence (Q8NHM5 1-650): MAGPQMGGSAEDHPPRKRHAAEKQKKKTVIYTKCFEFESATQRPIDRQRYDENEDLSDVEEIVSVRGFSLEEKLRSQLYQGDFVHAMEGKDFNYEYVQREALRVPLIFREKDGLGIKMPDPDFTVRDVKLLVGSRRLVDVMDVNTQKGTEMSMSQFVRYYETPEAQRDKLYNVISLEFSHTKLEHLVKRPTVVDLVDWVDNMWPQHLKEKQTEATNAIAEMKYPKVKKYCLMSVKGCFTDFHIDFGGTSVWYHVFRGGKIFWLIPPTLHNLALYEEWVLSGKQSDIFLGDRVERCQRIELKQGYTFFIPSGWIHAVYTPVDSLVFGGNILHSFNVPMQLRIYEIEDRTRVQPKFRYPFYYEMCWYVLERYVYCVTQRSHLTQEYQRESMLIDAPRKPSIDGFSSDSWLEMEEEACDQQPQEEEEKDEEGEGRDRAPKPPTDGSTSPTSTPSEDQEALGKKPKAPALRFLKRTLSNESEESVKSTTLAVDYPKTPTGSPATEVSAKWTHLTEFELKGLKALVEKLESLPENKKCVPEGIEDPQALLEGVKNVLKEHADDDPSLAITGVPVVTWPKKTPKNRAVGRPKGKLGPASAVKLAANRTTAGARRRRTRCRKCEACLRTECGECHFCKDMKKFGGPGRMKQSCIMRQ
Procedure, shortened: as §1

[5] = biological target: T5, KDM4C (JMJD2C) (Homo sapiens, UniProt Q9H3R0); assay: Histone lysine demethylase AlphaLISA assay, KDM4C
T5 construct: KDM4C; BRIC, Denmark; 1-349; E. coli; host or cells: E. coli
T5 sequence (Q9H3R0 1-349): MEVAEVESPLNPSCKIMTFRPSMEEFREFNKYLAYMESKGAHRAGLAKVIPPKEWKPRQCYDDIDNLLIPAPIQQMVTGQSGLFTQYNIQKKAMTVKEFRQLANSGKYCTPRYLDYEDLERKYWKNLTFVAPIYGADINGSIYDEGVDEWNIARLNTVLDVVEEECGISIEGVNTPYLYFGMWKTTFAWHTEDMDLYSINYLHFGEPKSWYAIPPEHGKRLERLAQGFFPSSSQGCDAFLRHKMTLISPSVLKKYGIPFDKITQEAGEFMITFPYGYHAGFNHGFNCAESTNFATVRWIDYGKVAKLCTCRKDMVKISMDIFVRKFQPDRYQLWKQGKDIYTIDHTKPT
Procedure, shortened: as §1

[6] = AlphaLISA, in vitro, read-out: HDME Inhibition PHF8
[7] = AlphaLISA assay, read-out: HDME Inhibition KDM6A (IC50)
[8] = AlphaLISA, in vitro, read-out: HDME Inhibition KDM6A
[9] = AlphaLISA assay, read-out: HDME Inhibition KDM5B (IC50)
[10] = AlphaLISA, in vitro, read-out: HDME Inhibition KDM5B
[11] = AlphaLISA assay, read-out: HDME Inhibition KDM4C (IC50)
[12] = AlphaLISA, in vitro, read-out: HDME Inhibition KDM4C

T1 sequence (Q9UPP1 37-440 limits assumed): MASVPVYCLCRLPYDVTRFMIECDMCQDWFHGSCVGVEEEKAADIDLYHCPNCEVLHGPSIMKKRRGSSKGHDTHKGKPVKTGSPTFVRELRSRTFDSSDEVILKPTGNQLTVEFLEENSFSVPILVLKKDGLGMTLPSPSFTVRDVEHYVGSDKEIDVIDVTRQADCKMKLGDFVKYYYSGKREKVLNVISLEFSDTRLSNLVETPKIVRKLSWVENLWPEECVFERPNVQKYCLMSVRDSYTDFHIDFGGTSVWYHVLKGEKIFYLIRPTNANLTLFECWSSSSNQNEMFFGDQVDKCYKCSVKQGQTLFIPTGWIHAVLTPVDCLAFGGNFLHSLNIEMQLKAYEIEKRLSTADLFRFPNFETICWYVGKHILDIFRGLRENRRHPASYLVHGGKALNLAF

| SMILES | IC50 [1, 6] [µM] | IC50 [2, 7] [µM] | IC50 [2, 8] [µM] | IC50 [3, 9] [µM] | IC50 [3, 10] [µM] | IC50 [4] [µM] | IC50 [5, 11] [µM] | IC50 [5, 12] [µM] | IC50 ([1]; AlphaLISA assay, read-out: HDME Inhibition PHF8 (IC50)) [µM] |
| --- | --- | --- | --- | --- | --- | --- | --- | --- | --- |
| CCc1nnc(CNCc2cc(C(=O)O)cc(C)n2)n1Cc1ccc(F)cc1 [Compound 27, 2-{[({5-Ethyl-4-[(4-fluorophenyl)methyl]-4H-1,2,4-triazol-3-yl}methyl)amino]methyl}-6-methylpyridine-4-carboxylic acid] | 0.537 | > 10 | > 10 | > 10 | > 10 | 0.158 | > 10 | > 10 |  |
| Cc1cc(C(=O)O)cc(CNCc2nnc(Cc3ccccc3)n2Cc2ccc(F)cc2)n1 [Compound 29, 2-{[({5-benzyl-4-[(4-fluorophenyl)methyl]-4H-1,2,4-triazol-3-yl}methyl)amino]methyl}-6-methylpyridine-4-carboxylic acid] | 2.65 | > 10 | > 10 | > 10 | > 10 | 1.14 | > 10 | > 10 |  |
| Cc1cc(C(=O)O)cc(CNCCc2ncccc2-c2ccsc2)n1 [Compound 34, 2-methyl-6-[({2-[3-(thiophen-3-yl)pyridin-2-yl]ethyl}amino)methyl]pyridine-4-carboxylic acid] | > 10 | > 10 | > 10 | > 10 | > 10 | 1.24 | > 10 | > 10 | > 10 |
